Reference: US20230014907A1, “INHIBITORS OF APOL1 AND METHODS OF USING SAME” (Vertex Pharmaceuticals Incorporated, priority 2020, published 2023)

Molecular target: T1, G1 APOL1 (Homo sapiens, UniProt O14791, I384M/S342G)
T1 construct: expressed in transfected cells
T1 sequence (O14791 28-398 S342G/I384M): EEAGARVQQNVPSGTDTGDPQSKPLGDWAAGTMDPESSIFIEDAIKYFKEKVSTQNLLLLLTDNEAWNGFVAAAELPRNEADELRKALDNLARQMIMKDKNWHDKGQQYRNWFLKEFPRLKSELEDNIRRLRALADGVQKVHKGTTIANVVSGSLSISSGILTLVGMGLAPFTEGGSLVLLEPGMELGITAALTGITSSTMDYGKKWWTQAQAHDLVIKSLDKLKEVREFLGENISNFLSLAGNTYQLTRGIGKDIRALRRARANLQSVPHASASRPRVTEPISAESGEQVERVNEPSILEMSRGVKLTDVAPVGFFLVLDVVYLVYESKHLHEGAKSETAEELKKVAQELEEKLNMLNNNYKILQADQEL
Assay: Acute APOL1 Thallium Assay with Inducible Stable Clones of HEK 293 Cells
Format: cell-based
Conditions: HEK 293 inducible stable clones, G1 APOL1; read-out: Thallium Assay (IC50)
In short: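 Pore activity was read as the fluorescence increase from Tl+ entering cells loaded with an AM-ester thallium indicator dye. The cells were tetracycline-inducible HEK293 T-Rex expressing G1 APOL1 (clone DC3.25), induced when plated at 26000 per well and incubated at 37° C.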

Row | SMILES | IC50
1 | O=C(NCCc1c(-c2ccc(F)cc2)[nH]c2c(F)cc(F)cc12)[C@H]1CC[C@@H](O)CC1 [Compound 324] | > 1000 nM
2 | O=C(NCCc1c(-c2ccc(F)cc2)[nH]c2c(F)cc(F)cc12)[C@H]1CC[C@H](O)CC1 [Compound 325] | > 1000 nM
3 | O=C(NCCc1c(-c2ccc(F)cc2)[nH]c2c(F)cc(F)cc12)C1CCCCC1O (stereo not shown) [Compound 326] | 250 to 1000 nM
4 | O=C(NCCc1c(-c2ccc(F)cc2)[nH]c2c(F)cc(F)cc12)C(O)C(F)(F)F (stereo not shown) [Compound 327] | 250 to 1000 nM
5 | Nc1ncc(C(=O)NCCc2c(-c3ccc(F)cc3)[nH]c3c(F)cc(F)cc23)s1 [Compound 328] | > 1000 nM
6 | O=C1CCC[C@@H](C(=O)NCCc2c(-c3ccc(F)cc3)[nH]c3c(F)cc(F)cc23)N1 [Compound 329] | > 1000 nM
7 | O=C1NCCCC1C(=O)NCCc1c(-c2ccc(F)cc2)[nH]c2c(F)cc(F)cc12 (stereo not shown) [Compound 330] | > 1000 nM
8 | O=C1CC(C(=O)NCCc2c(-c3ccc(F)cc3)[nH]c3c(F)cc(F)cc23)CCN1 (stereo not shown) [Compound 331] | > 1000 nM
9 | O=C1CCC(C(=O)NCCc2c(-c3ccc(F)cc3)[nH]c3c(F)cc(F)cc23)CN1 (stereo not shown) [Compound 332] | > 1000 nM
10 | O=C1CC(C(=O)NCCc2c(-c3ccc(F)cc3)[nH]c3c(F)cc(F)cc23)C(=O)N1 (stereo not shown) [Compound 333] | < 250 nM
11 | O=C(NCCc1c(-c2ccc(F)cc2)[nH]c2c(F)cc(F)cc12)c1ccc(O)nc1 [Compound 334] | > 1000 nM
12 | O=C1N[C@H](C(=O)NCCc2c(-c3ccc(F)cc3)[nH]c3c(F)cc(F)cc23)CO1 [Compound 336] | > 1000 nM
13 | O=C1NCC(C(=O)NCCc2c(-c3ccc(F)cc3)[nH]c3c(F)cc(F)cc23)O1 (stereo not shown) [Compound 337] | > 1000 nM
14 | O=C1CC[C@@H](C(=O)NCCc2c(-c3ccc(F)cc3)[nH]c3c(F)cc(F)cc23)N1 [Compound 338] | > 1000 nM
15 | NC(=O)C1(C(=O)NCCc2c(-c3ccc(F)cc3)[nH]c3c(F)cc(F)cc23)CC1 [Compound 339] | 250 to 1000 nM
16 | O=C1CC(C(=O)NCCc2c(-c3ccc(F)cc3)[nH]c3c(F)cc(F)cc23)CN1 (stereo not shown) [Compound 340] | > 1000 nM

Row | SMILES | IC50
17 | CC(C)(CO)C(=O)NCCc1c(-c2ccc(F)cc2)[nH]c2c(F)cc(F)cc12 [Compound 341] | 250 to 1000 nM
18 | O=C(NCCc1c(-c2ccc(F)cc2)[nH]c2c(F)cc(F)cc12)C1(O)COC1 [Compound 342] | 250 to 1000 nM
19 | NC(=O)CCC(=O)NCCc1c(-c2ccc(F)cc2)[nH]c2c(F)cc(F)cc12 [Compound 343] | > 1000 nM
20 | CC(=O)NCC(=O)NCCc1c(-c2ccc(F)cc2)[nH]c2c(F)cc(F)cc12 [Compound 344] | > 1000 nM
21 | CNC(=O)CC(=O)NCCc1c(-c2ccc(F)cc2)[nH]c2c(F)cc(F)cc12 [Compound 345] | > 1000 nM
22 | O=C(NCCc1c(-c2ccc(F)cc2)[nH]c2c(F)cc(F)cc12)C(O)C1CC1 (stereo not shown) [Compound 346] | 250 to 1000 nM
23 | O=C(NCCc1c(-c2ccc(F)cc2)[nH]c2c(F)cc(F)cc12)C1(CO)CC1 [Compound 347] | < 250 nM
24 | O=C(NCCc1c(-c2ccc(F)cc2)[nH]c2c(F)cc(F)cc12)C1CC(O)C1 (stereo not shown) [Compound 348] | > 1000 nM
25 | NC1(C(=O)NCCc2c(-c3ccc(F)cc3)[nH]c3c(F)cc(F)cc23)CCC1 [Compound 349] | 250 to 1000 nM
26 | O=C(NCCc1c(-c2ccc(F)cc2)[nH]c2c(F)cc(F)cc12)C1CNC1=O (stereo not shown) [Compound 350] | > 1000 nM
27 | O=C(NCCc1c(-c2ccc(F)cc2)[nH]c2c(F)cc(F)cc12)c1cc[nH]n1 [Compound 351] | > 1000 nM
28 | O=C(NCCc1c(-c2ccc(F)cc2)[nH]c2c(F)cc(F)cc12)c1cn[nH]c1 [Compound 352] | > 1000 nM
29 | O=C(NCCc1c(-c2ccc(F)cc2)[nH]c2c(F)cc(F)cc12)c1c[nH]cn1 [Compound 353] | 250 to 1000 nM
30 | O=C(NCCc1c(-c2ccc(F)cc2)[nH]c2c(F)cc(F)cc12)c1ccc[nH]1 [Compound 354] | > 1000 nM
31 | CC(C)(O)C(=O)NCCc1c(-c2ccc(F)cc2)[nH]c2c(F)cc(F)cc12 [Compound 355] | > 1000 nM

Further lines, results first:

Row | IC50 | SMILES
32 | > 1000 nM | C[C@H](O)CC(=O)NCCc1c(-c2ccc(F)cc2)[nH]c2c(F)cc(F)cc12 [Compound 356]
33 | > 1000 nM | NC(=O)CC(=O)NCCc1c(-c2ccc(F)cc2)[nH]c2c(F)cc(F)cc12 [Compound 358]
34 | > 1000 nM | CNC(=O)C(=O)NCCc1c(-c2ccc(F)cc2)[nH]c2c(F)cc(F)cc12 [Compound 359]
35 | 250 to 1000 nM | O=C(NCCc1c(-c2ccc(F)cc2)[nH]c2c(F)cc(F)cc12)C1(O)CC1 [Compound 360]
36 | 250 to 1000 nM | C[C@H](O)C(=O)NCCc1c(-c2ccc(F)cc2)[nH]c2c(F)cc(F)cc12 [Compound 362]
37 | > 1000 nM | C[C@H](N)C(=O)NCCc1c(-c2ccc(F)cc2)[nH]c2c(F)cc(F)cc12 [Compound 363]
38 | 250 to 1000 nM | NC(=O)C(=O)NCCc1c(-c2ccc(F)cc2)[nH]c2c(F)cc(F)cc12 [Compound 364]
39 | > 1000 nM | O=C(CO)NCCc1c(-c2ccc(F)cc2)[nH]c2c(F)cc(F)cc12 [Compound 365]
40 | 250 to 1000 nM | NCC(=O)NCCc1c(-c2ccc(F)cc2)[nH]c2c(F)cc(F)cc12 [Compound 366]
41 | > 1000 nM | O=C(NCCc1c(-c2ccc(F)cc2)[nH]c2c(F)cc(F)cc12)c1cnc(C(F)(F)F)s1 [Compound 367]
42 | > 1000 nM | O=C(NCCc1c(-c2ccc(F)cc2)[nH]c2c(F)cc(F)cc12)c1nc(C(F)(F)F)cs1 [Compound 368]
43 | > 1000 nM | O=C(NCCc1c(-c2ccc(F)cc2)[nH]c2c(F)cc(F)cc12)c1ccnc(C(F)(F)F)c1 [Compound 369]
44 | > 1000 nM | O=C(CCN1CCCC1=O)NCCc1c(-c2ccc(F)cc2)[nH]c2c(F)cc(F)cc12 [Compound 370]
45 | > 1000 nM | Cn1ccnc1CCC(=O)NCCc1c(-c2ccc(F)cc2)[nH]c2c(F)cc(F)cc12 [Compound 371]
46 | > 1000 nM | Cc1ccnn1CCC(=O)NCCc1c(-c2ccc(F)cc2)[nH]c2c(F)cc(F)cc12 [Compound 372]
47 | > 1000 nM | O=C(COc1cccnc1)NCCc1c(-c2ccc(F)cc2)[nH]c2c(F)cc(F)cc12 [Compound 373]
48 | > 1000 nM | CN(C)C(=O)CCC(=O)NCCc1c(-c2ccc(F)cc2)[nH]c2c(F)cc(F)cc12 [Compound 374]
49 | > 1000 nM | O=C(CN1CCCC1=O)NCCc1c(-c2ccc(F)cc2)[nH]c2c(F)cc(F)cc12 [Compound 375]
50 | > 1000 nM | O=C(Cc1nccs1)NCCc1c(-c2ccc(F)cc2)[nH]c2c(F)cc(F)cc12 [Compound 376]
51 | > 1000 nM | O=C(NCCc1c(-c2ccc(F)cc2)[nH]c2c(F)cc(F)cc12)c1cncc(F)c1 [Compound 377]
52 | > 1000 nM | Cc1ccn(CC(=O)NCCc2c(-c3ccc(F)cc3)[nH]c3c(F)cc(F)cc23)n1 [Compound 378]

Row | IC50 | SMILES
53 | > 1000 nM | Cc1cnn(CC(=O)NCCc2c(-c3ccc(F)cc3)[nH]c3c(F)cc(F)cc23)c1 [Compound 379]
54 | > 1000 nM | Cc1nccn1CC(=O)NCCc1c(-c2ccc(F)cc2)[nH]c2c(F)cc(F)cc12 [Compound 380]
55 | > 1000 nM | O=C(Cc1cnccn1)NCCc1c(-c2ccc(F)cc2)[nH]c2c(F)cc(F)cc12 [Compound 381]
56 | > 1000 nM | CS(=O)(=O)CC(=O)NCCc1c(-c2ccc(F)cc2)[nH]c2c(F)cc(F)cc12 [Compound 382]
57 | > 1000 nM | O=C1CC(C(=O)NCCc2c(-c3ccc(F)cc3)[nH]c3c(F)cc(F)cc23)CO1 (stereo not shown) [Compound 383]
58 | > 1000 nM | O=C(NCCc1c(-c2ccc(F)cc2)[nH]c2c(F)cc(F)cc12)c1cncs1 [Compound 384]
59 | > 1000 nM | O=C(NCCc1c(-c2ccc(F)cc2)[nH]c2c(F)cc(F)cc12)c1cscn1 [Compound 385]
60 | > 1000 nM | O=C(Cn1cncn1)NCCc1c(-c2ccc(F)cc2)[nH]c2c(F)cc(F)cc12 [Compound 386]
61 | > 1000 nM | O=C(Cn1nccn1)NCCc1c(-c2ccc(F)cc2)[nH]c2c(F)cc(F)cc12 [Compound 387]
62 | 250 to 1000 nM | Cn1ccnc1C(=O)NCCc1c(-c2ccc(F)cc2)[nH]c2c(F)cc(F)cc12 [Compound 388]
63 | > 1000 nM | Cn1cnc(C(=O)NCCc2c(-c3ccc(F)cc3)[nH]c3c(F)cc(F)cc23)c1 [Compound 389]
64 | > 1000 nM | Cn1ccc(C(=O)NCCc2c(-c3ccc(F)cc3)[nH]c3c(F)cc(F)cc23)n1 [Compound 390]
65 | > 1000 nM | Cn1cc(C(=O)NCCc2c(-c3ccc(F)cc3)[nH]c3c(F)cc(F)cc23)cn1 [Compound 391]
66 | 250 to 1000 nM | Cn1nccc1C(=O)NCCc1c(-c2ccc(F)cc2)[nH]c2c(F)cc(F)cc12 [Compound 392]
67 | > 1000 nM | Cc1ccc(C(=O)NCCc2c(-c3ccc(F)cc3)[nH]c3c(F)cc(F)cc23)o1 [Compound 393]
68 | > 1000 nM | Cc1occc1C(=O)NCCc1c(-c2ccc(F)cc2)[nH]c2c(F)cc(F)cc12 [Compound 394]
69 | > 1000 nM | O=C(Cn1cccc1)NCCc1c(-c2ccc(F)cc2)[nH]c2c(F)cc(F)cc12 [Compound 395]
70 | > 1000 nM | O=C(NCCc1c(-c2ccc(F)cc2)[nH]c2c(F)cc(F)cc12)c1cccnn1 [Compound 396]
71 | > 1000 nM | O=C(NCCc1c(-c2ccc(F)cc2)[nH]c2c(F)cc(F)cc12)c1ncccn1 [Compound 397]
72 | > 1000 nM | O=C(NCCc1c(-c2ccc(F)cc2)[nH]c2c(F)cc(F)cc12)c1cnccn1 [Compound 398]
73 | > 1000 nM | O=C(NCCc1c(-c2ccc(F)cc2)[nH]c2c(F)cc(F)cc12)c1ccnnc1 [Compound 399]
